One data set addresses Prothrombin (Homo sapiens, UniProt P00734). In words: In vitro inhibition of human thrombin.
Data set [1] concerns the target T1, Coagulation factor X (Homo sapiens, UniProt P00742). The experiment in a line: Inhibitory activity against Coagulation factor X was determined.
Data set [2] concerns the target T1, Coagulation factor X. In words: In vitro inhibition of human coagulation factor Xa.
For a further data set, the target named is Serine protease 1 (Homo sapiens, UniProt P07477). The experiment in a line: In vitro inhibition of human trypsin.
Data set [3] deals with Tissue-type plasminogen activator (Homo sapiens, UniProt P00750). In words: Inhibitory activity against Tissue plasminogen activator.
Data set [4] has as its target Vitamin K-dependent protein C (Homo sapiens, UniProt P04070). In words: Inhibitory activity against activated protein C (APC).
The nature of data set [5]: Oral bioavailability in rat. Conditions: in vivo. Format: ADME, organism-based.
A further data set has as its target Plasminogen (Homo sapiens, UniProt P00747). The experiment in a line: Inhibitory activity against plasmin.

21 compounds from ChEMBL document CHEMBL1134704, “Design, synthesis, and SAR of amino acid derivatives as factor Xa inhibitors” (Bioorg Med Chem Lett, 2001) can be followed below.

The structures appear in SMILES notation.

T1 sequence (P00742 41-179 limits assumed): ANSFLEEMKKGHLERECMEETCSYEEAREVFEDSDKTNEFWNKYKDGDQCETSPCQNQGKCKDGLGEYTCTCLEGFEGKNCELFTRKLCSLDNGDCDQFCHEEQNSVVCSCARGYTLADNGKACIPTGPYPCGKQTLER
T1 sequence (P00742 235-488 limits assumed): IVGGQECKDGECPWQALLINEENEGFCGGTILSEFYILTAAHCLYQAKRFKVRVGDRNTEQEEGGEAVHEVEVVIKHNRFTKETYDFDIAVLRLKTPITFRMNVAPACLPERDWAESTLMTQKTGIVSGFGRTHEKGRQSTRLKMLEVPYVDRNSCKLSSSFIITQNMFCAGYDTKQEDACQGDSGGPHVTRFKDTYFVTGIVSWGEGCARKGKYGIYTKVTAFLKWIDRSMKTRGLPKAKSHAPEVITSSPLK
Chain of Serine protease 1 (P07477 whole entry): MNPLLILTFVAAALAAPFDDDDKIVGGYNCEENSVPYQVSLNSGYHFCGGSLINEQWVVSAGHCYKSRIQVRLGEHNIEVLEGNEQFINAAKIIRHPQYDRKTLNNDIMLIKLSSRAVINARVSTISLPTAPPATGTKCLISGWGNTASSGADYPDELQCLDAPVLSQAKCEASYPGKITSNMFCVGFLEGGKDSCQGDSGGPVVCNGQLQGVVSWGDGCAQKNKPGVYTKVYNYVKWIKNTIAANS
Chain of Vitamin K-dependent protein C (P04070 43-197 limits assumed): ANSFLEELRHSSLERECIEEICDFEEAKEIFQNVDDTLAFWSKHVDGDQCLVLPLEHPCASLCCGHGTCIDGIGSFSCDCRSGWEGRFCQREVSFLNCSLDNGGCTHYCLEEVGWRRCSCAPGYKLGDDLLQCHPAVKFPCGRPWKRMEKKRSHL
Chain of Vitamin K-dependent protein C (P04070 212-461 limits assumed): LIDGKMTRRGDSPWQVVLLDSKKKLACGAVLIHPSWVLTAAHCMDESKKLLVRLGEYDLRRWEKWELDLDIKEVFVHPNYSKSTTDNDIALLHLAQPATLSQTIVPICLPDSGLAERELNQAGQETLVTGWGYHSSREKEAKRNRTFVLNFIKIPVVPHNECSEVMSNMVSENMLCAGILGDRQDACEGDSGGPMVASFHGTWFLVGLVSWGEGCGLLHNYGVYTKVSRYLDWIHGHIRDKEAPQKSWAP
Chain of Tissue-type plasminogen activator (P00750 whole entry): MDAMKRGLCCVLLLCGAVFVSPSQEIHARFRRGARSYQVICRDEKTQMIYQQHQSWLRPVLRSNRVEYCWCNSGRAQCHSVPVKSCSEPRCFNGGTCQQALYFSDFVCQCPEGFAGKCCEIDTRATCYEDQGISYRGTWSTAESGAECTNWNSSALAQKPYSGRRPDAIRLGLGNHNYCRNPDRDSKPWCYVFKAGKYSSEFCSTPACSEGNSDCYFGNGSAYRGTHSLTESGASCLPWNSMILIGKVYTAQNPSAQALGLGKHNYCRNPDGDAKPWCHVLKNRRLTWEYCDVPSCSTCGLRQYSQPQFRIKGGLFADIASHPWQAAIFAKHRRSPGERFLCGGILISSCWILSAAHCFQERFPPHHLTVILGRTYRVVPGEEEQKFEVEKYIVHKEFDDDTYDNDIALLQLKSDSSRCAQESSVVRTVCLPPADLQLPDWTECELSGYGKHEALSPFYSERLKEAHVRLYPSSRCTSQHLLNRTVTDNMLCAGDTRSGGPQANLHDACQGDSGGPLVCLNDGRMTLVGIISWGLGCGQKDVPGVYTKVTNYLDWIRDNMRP
Chain of Plasminogen (P00747 97-580 limits assumed): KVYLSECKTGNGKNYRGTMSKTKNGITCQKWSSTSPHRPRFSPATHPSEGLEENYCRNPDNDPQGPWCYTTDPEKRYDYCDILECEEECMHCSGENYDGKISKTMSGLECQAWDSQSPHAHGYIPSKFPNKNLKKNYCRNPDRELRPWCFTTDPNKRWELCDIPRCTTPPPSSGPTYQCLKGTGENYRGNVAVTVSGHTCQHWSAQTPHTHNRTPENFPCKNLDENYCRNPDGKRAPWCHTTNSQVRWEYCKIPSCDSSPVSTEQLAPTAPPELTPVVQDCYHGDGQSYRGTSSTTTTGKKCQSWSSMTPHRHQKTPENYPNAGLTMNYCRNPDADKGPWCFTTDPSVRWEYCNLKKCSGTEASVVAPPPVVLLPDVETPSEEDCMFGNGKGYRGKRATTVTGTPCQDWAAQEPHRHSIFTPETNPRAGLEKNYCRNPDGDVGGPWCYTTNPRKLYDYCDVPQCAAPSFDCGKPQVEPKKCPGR
Chain of Plasminogen (P00747 581-810 limits assumed): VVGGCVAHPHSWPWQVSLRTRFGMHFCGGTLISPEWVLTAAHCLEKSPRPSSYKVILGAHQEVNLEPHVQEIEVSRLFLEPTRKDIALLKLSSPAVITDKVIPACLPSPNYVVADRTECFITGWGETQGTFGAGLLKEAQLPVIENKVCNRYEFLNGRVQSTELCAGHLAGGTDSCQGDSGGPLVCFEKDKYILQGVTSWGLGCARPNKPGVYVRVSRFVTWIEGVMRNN

Broadly, the IC50 is the concentration at which inhibition is half-maximal. Take `Nc1nccc2ccc(C(=O)N3Cc4ccccc4C[C@H]3C(=O)Nc3ccc(-c4ccccc4S(N)(=O)=O)cc3)cc12`: the IC50 against Prothrombin is greater than 10 µM; on Coagulation factor X [1], 2.77 µM.

Turning to `N=C(N)c1cccc(C(=O)N2Cc3ccc(O)cc3C[C@@H]2C(=O)Nc2ccc(-c3ccccc3S(N)(=O)=O)cc2)c1`, the concentration for half-maximal inhibition (IC50) on Coagulation factor X [2] was 1.78 µM; on Prothrombin, greater than 10 µM; at Serine protease 1, greater than 10 µM.

For `Nc1[nH]nc2ccc(C(=O)N[C@@H](C(=O)Nc3ccc(-c4ccccc4S(N)(=O)=O)cc3)c3ccccc3)cc12`, the half-maximal inhibitory concentration (IC50) at Coagulation factor X [2] is 3.45 µM; against Prothrombin, greater than 10 µM.

For the compound `N=C(N)c1cccc(C(=O)N[C@H](Cc2ccccc2)C(=O)Nc2ccc(-c3ccccc3S(N)(=O)=O)cc2)c1`, the 50% inhibitory concentration (IC50) against Coagulation factor X [2] was 0.0313 µM; at Prothrombin, greater than 10 µM; against Serine protease 1, greater than 10 µM.

Regarding `N=C(N)c1cccc(C(=O)N[C@H](C(=O)Nc2ccc(-c3ccccc3S(N)(=O)=O)cc2)c2ccccc2)c1`, the IC50 against Coagulation factor X [2] was 0.337 µM; against Prothrombin, greater than 10 µM; at Serine protease 1, 5.17 µM.

Consider `N=C(N)c1cccc(C(=O)N[C@@H](Cc2ccccc2)C(=O)Nc2ccc(-c3ccccc3S(N)(=O)=O)cc2)c1`, for which the IC50 against Coagulation factor X [2] was 0.762 µM; against Prothrombin, greater than 10 µM; against Serine protease 1, greater than 10 µM.

Turning to `Nc1noc2ccc(C(=O)N[C@@H](C(=O)Nc3ccc(-c4ccccc4S(N)(=O)=O)cc3)c3ccccc3)cc12`, the half-inhibitory concentration (IC50) against Prothrombin and at Coagulation factor X [1] was greater than 10 µM throughout.

As to `N=C(N)c1cccc(C(=O)N2CCC[C@H]2C(=O)Nc2ccc(-c3ccccc3S(N)(=O)=O)cc2)c1`, the half-maximal inhibitory concentration (IC50) against Coagulation factor X [2], against Prothrombin and against Serine protease 1 was greater than 10 µM in each case.

Turning to `CC(C)[C@@H](NC(=O)c1cccc(C(=N)N)c1)C(=O)Nc1ccc(-c2ccccc2S(N)(=O)=O)cc1`, the 50% inhibitory concentration (IC50) on Coagulation factor X [2] is 0.0348 µM; against Prothrombin it was greater than 10 µM; against Serine protease 1, greater than 10 µM.

`N=C(N)c1cccc(C(=O)N[C@H](C(=O)Nc2ccc(-c3ccccc3S(N)(=O)=O)cc2)C2CCCCC2)c1`: the half-maximal inhibitory concentration (IC50) against Coagulation factor X [2] is 0.635 µM; against Prothrombin it was greater than 10 µM; against Serine protease 1 it was greater than 7.93 µM.

Consider `Nc1[nH]nc2ccc(C(=O)N[C@H](C(=O)Nc3ccc(-c4ccccc4S(N)(=O)=O)cc3)c3ccccc3)cc12`, for which the IC50 against Coagulation factor X [2] and on Prothrombin was 10 µM each time.

`N=C(N)c1cccc(C(=O)NCC(=O)Nc2ccc(-c3ccccc3S(N)(=O)=O)cc2)c1`: the concentration for half-maximal inhibition (IC50) at Coagulation factor X [2] is 0.851 µM; against Prothrombin, greater than 10 µM; at Serine protease 1, greater than 10 µM.

Consider `N=C(N)c1cccc(C(=O)N[C@@H](CC(=O)OC2CCCCC2)C(=O)Nc2ccc(-c3ccccc3S(N)(=O)=O)cc2)c1`, for which the results for the concentration for half-maximal inhibition (IC50) against Coagulation factor X [2], at Prothrombin and against Serine protease 1 were 0.055 µM, greater than 10 µM and 4.81 µM, respectively.

On to `N=C(N)c1cccc(C(=O)N2Cc3ccccc3C[C@@H]2C(=O)Nc2ccc(-c3ccccc3S(N)(=O)=O)cc2)c1`, for which the IC50 against Coagulation factor X [2] was 0.0187 µM; on Prothrombin it was greater than 10 µM; against Serine protease 1 it was 4.39 µM.

For the compound `N=C(N)c1cccc(C(=O)N[C@@H](CCC(=O)OCc2ccccc2)C(=O)Nc2ccc(-c3ccccc3S(N)(=O)=O)cc2)c1`, the IC50 at Coagulation factor X [2] is 0.644 µM; against Prothrombin, greater than 10 µM; on Serine protease 1, 5.64 µM.

Turning to `CC(C)[C@H](NC(=O)c1cccc(C(=N)N)c1)C(=O)Nc1ccc(-c2ccccc2S(N)(=O)=O)cc1`, the half-maximal inhibitory concentration (IC50) against Coagulation factor X [2] was 0.676 µM; on Prothrombin it was greater than 10 µM; against Serine protease 1, greater than 10 µM.

For `N=C(N)c1cccc(C(=O)N[C@@H](CCC(=O)OC2CCCCC2)C(=O)Nc2ccc(-c3ccccc3S(N)(=O)=O)cc2)c1`, the IC50 on Coagulation factor X [2] is 0.842 µM; at Prothrombin it was greater than 10 µM; against Serine protease 1, greater than 10 µM.

Regarding `N=C(N)c1cccc(C(=O)N[C@@H](CCC(=O)O)C(=O)Nc2ccc(-c3ccccc3S(N)(=O)=O)cc2)c1`, the results for the IC50 against Coagulation factor X [2], at Prothrombin and against Serine protease 1 were 1.44 µM, greater than 10 µM and greater than 10 µM, respectively.

By bioavailability is commonly meant the share of a dose that reaches the circulation, judged against a reference dose that is usually intravenous. A higher bioavailability goes with good availability. Consider `N=C(N)c1cccc(C(=O)N[C@@H](C(=O)Nc2ccc(-c3ccccc3S(N)(=O)=O)cc2)c2ccccc2)c1`, for which the half-maximal inhibitory concentration (IC50) is 0.0348 µM at Coagulation factor X [2]; greater than 180 µM in data set [3]; greater than 10 µM on Prothrombin; 6.56 µM in data set [4]; 1.77 µM on Serine protease 1; 18.1 µM on Plasminogen. In data set [5], this compound gave a bioavailability of less than 5%.

As for `N=C(N)c1cccc(C(=O)N2Cc3ccccc3C[C@H]2C(=O)Nc2ccc(-c3ccccc3S(N)(=O)=O)cc2)c1`, the concentration for half-maximal inhibition (IC50) is 0.003 µM against Coagulation factor X [2]; 180 µM in data set [3]; greater than 10 µM against Prothrombin; 73 µM in data set [4]; 2.15 µM on Serine protease 1; 77.9 µM at Plasminogen. In data set [5], this compound gave a bioavailability of less than 5%.

Regarding `N=C(N)c1cccc(C(=O)N2Cc3ccc(O)cc3C[C@H]2C(=O)Nc2ccc(-c3ccccc3S(N)(=O)=O)cc2)c1`, the values for the IC50 at Coagulation factor X [2], against Prothrombin and against Serine protease 1 were 0.0967 µM, greater than 10 µM and 0.888 µM, respectively.
